Here are results for four compounds from US6620817B1, “[5-CHLORO-6-PHENYL-2-(4-TRIFLUOROMETHYLPHENYL)-4-PYRIMIDINYLAMINO]ACETAMIDE DERIVATIVES, PROCESS FOR PRODUCING THE SAME, MEDICINAL COMPOSITIONS CONTAINING THE SAME AND INTERMEDIATE OF THESE COMPOUNDS” (Dainippon Pharmaceutical Co., Ltd., priority 1999, dated 2003).

One data set relates to male mice of ICR strain. Description: Subacute toxicity test (repetitive oral administration for 14 days). The format is in vivo. Also noted: key to ALT (alanine aminotransferase), significance vs solvent-treated control: −: no significant differences (Student's t-test); +: p < 0.05 (Student's t-test); ++: p < 0.01 (Student's t-test). The following applies: for ALT (alanine aminotransferase), significance vs solvent-treated control: blood plasma; for ALT (alanine aminotransferase), significance vs solvent-treated control / Other remarks: male ICR mice; for Other remarks: remarks observed during the 14-day oral test; for ALT (alanine aminotransferase) vs vehicle-treated control group (in words) / AST (aspartate aminotransferase) vs vehicle-treated control group / BUN (blood urea nitrogen) vs vehicle-treated control group / wet-weights of various organs such as liver, spleen vs vehicle-treated control group / change in the body weight during the test vs vehicle-treated control group: 14 days oral; for ALT (alanine aminotransferase) vs vehicle-treated control group (in words) / AST (aspartate aminotransferase) vs vehicle-treated control group: parameter for liver dysfunction; for BUN (blood urea nitrogen) vs vehicle-treated control group: parameter for renal dysfunction; for wet-weights of various organs such as liver, spleen vs vehicle-treated control group: weight per body; for change in the body weight during the test vs vehicle-treated control group: even at a high dose of 300 mg/kg. Here is the method:
Subacute toxicity test was carried out by repetitive administration of a test compound to mice for 14 days. That is, a test compound was orally administered to male mice of ICR strain once a day for 14 days. On the day following the final administration, the mice were anesthetized with Nembutal, and the blood was taken out therefrom, and further various organs were taken out. The wet-weight of each organ was determined, and was converted into a weight per body, and then compared. The blood plasma was subjected to various biochemical tests, mainly to tests for parameters for liver function and renal function. The results of these tests were statistically compared with those in the solvent-treated control group. The data of the biochemical tests, for example, ALT (alanine aminotransferase) as a parameter for liver dysfunction and other remarks observed during the test (see the column of “other remarks” in Table 3) are shown in Table 3.

Data set [1] deals with collagen-induced arthritis. Description: Collagen-induced arthritis inhibitory test. Format: in vivo, mice. The following applies: for Inhibitory rate: score of arthritis on the 52nd day after the first immunization vs control group, male DBA/IJ mice. The procedure: Collagen-induced arthritis inhibitory test is an experimental model for rheumatoid arthritis reported by Trethan, D. E. et al. [cf. […] J. Immunol., 140, 78-83 (1988)].
Collagen-induced arthritis inhibitory test was carried out according to the method of Kakimoto, K. et al. (cf. above reference of Kakimoto, K. et al.) with slight modification. That is, solubilized bovine cartilage type II collagen (product of Elastine Products, U.S.A.) was emulsified in complete Freund's adjuvant (product of DIFCO Lab., U.S.A.) to give a homogeneous emulsion. Male mice of DBA/IJ strain (6 week-old; product of Nippon Charles River, Japan) were immunized by injection at the base of the tail with 150 μg of the emulsified collagen. Twenty one days after the first immunization, arthritis was induced by a booster immunization of 150 μg of the emulsified collagen prepared in the same manner as above at the base of the tail again. A test compound was orally administered 5 days a week except for Saturdays and Sundays, which was started on the day of the first immunization and continued until the termination of the experiment. Mice were daily observed since the 8th day after the booster immunization for the onset of arthritis, and an arthritic score was derived by grading the severity of involvement of each paw five scales according to the method of Wood, F. D. et al. [cf. Int. Arch. Allergy Appl. The severity of arthritis was estimated by the sum of the scores of all 4 paws of both forepaws and both hind paws, and the onset of the disease was considered when score 1 was observed.
The inhibitory rate was obtained by comparing the score of arthritis on the 52nd day after the first immunization with that of the control group.

Setting [2] is: dose 100 mg/kg orally once a day for 14 days.
[3] abbreviates: dose 200 mg/kg orally once a day for 14 days.
[4] abbreviates: dose 300 mg/kg orally once a day for 14 days.

As to `Cc1nc(-c2ccc(C(F)(F)F)cc2)nc(NCC(=O)N(C)C)c1C` [Reference Example B, 2-[5,6-dimethyl-2-(4-trifluoro-methylphenyl)-4-pyrimidinylamino]-N,N-dimethylacetamide], in the data set on male mice of ICR strain (dose 100 mg/kg), the “side effect on liver and kidney” value was “potent side effect on liver and kidney”. In addition, the “ALT (alanine aminotransferase), significance vs solvent-treated control” value (“ALT … significance vs solvent-treated control” for short) in the data set with male mice of ICR strain (setting [2]) is “++ (p < 0.01 (Student's t-test))”. Also, the Other remarks result in the data set on male mice of ICR strain was “peritoneal fluid, renal damage”. For the same compound, the Inhibitory rate in data set [1] (dose 0.3 mg/kg orally) was 0.0%; in data set [1] (dose 1 mg/kg orally), 41.8%; in data set [1] (dose 3 mg/kg orally), 63.9%; in data set [1] (dose 10 mg/kg orally), 97.6%. For the same compound, the “anti-rheumatoid activity compared with Examples 1 and 2” value in data set [1] (dose 3 mg/kg or less) is “weaker than the compounds of Example 1 and Example 2”; in data set [1] (dose 10 mg/kg) it was “as potent as the compounds of Example 1 and Example 2”.
On to `CCCN(CCC)C(=O)CNc1nc(-c2ccc(C(F)(F)F)cc2)nc(C)c1C` [Reference Example A, 2-[5,6-dimethyl-2-(4-trifluoro-methylphenyl)-4-pyrimidinylamino]-N,N-dipropylacetamide, reference compound], for which, in the data set with male mice of ICR strain (dose 100 mg/kg), the “effect on the above parameters (body weight, organ weights, ALT, AST, BUN)” value is given as “did not affect”. The “ALT … significance vs solvent-treated control” value is reported as “−” with male mice of ICR strain (setting [2]), “−” in the data set with male mice of ICR strain (setting [3]) and “+ (p < 0.05 (Student's t-test))” with male mice of ICR strain (setting [4]). Besides, in the data set on male mice of ICR strain (high dose of 300 mg/kg), the “effect on the liver” value was “did affect the liver in some degree”. Besides, the Other remarks result with male mice of ICR strain is “no particular remark”. The “inhibitory effects (in words)” value in data set [1] (dose 3 mg/kg) is listed as “hardly showed any inhibitory effects”. For the same compound, the Inhibitory rate stood at 15.5% in data set [1] (dose 3 mg/kg orally) and 73.2% in data set [1] (dose 10 mg/kg orally).
For `CN(C)C(=O)CNc1nc(-c2ccc(C(F)(F)F)cc2)nc(-c2ccccc2)c1Cl` [Example 1, 2-[5-chloro-6-phenyl-2-(4-trifluoromethylphenyl)-4-pyrimidinylamino]-N,N-dimethylacetamide], in the data set with male mice of ICR strain, the “ALT (alanine aminotransferase) vs vehicle-treated control group (in words)” value is on record as “not significantly different”; the “AST (aspartate aminotransferase) vs vehicle-treated control group” value was “not significantly different”; the “BUN (blood urea nitrogen) vs vehicle-treated control group” value was “not significantly different”; the “wet-weights of various organs such as liver, spleen vs vehicle-treated control group” value is “not significantly different”. Also, in the data set with male mice of ICR strain, the “change in the body weight during the test vs vehicle-treated control group” value was “not significantly different” and the Other remarks result was “no particular remark”. Moreover, the “ALT … significance vs solvent-treated control” value with male mice of ICR strain (setting [2]) is recorded as “−”. The “ALT … significance vs solvent-treated control” value in the data set with male mice of ICR strain (setting [3]) is listed as “−”. The “ALT … significance vs solvent-treated control” value in the data set with male mice of ICR strain (setting [4]) is on record as “−”. Further, the Inhibitory rate in data set [1] (dose 0.3 mg/kg orally) is given as 20.0%. The same compound had an Inhibitory rate in data set [1] (dose 10 mg/kg orally) of 96.0%.
On to `CN(C(=O)CNc1nc(-c2ccc(C(F)(F)F)cc2)nc(-c2ccccc2)c1Cl)C1CC1` [Example 2, 2-[5-chloro-6-phenyl-2-(4-trifluoromethylphenyl)-4-pyrimidinylamino]-N-cyclopropyl-N-methylacetamide], for which, in the data set on male mice of ICR strain, the “ALT (alanine aminotransferase) vs vehicle-treated control group (in words)” value is listed as “not significantly different”; the “AST (aspartate aminotransferase) vs vehicle-treated control group” value is on record as “not significantly different”; the “BUN (blood urea nitrogen) vs vehicle-treated control group” value is “not significantly different”; the “wet-weights of various organs such as liver, spleen vs vehicle-treated control group” value is reported as “not significantly different”. In addition, in the data set on male mice of ICR strain, the “change in the body weight during the test vs vehicle-treated control group” value was “not significantly different” and the Other remarks result is recorded as “no particular remark”. Moreover, the “ALT … significance vs solvent-treated control” value in the data set with male mice of ICR strain (setting [2]) is on record as “−”. Moreover, in the data set on male mice of ICR strain (setting [3]), the “ALT … significance vs solvent-treated control” value is recorded as “−”. Also, the “ALT … significance vs solvent-treated control” value with male mice of ICR strain (setting [4]) is “−”. The same compound had an Inhibitory rate in data set [1] (dose 0.3 mg/kg orally) of 29.1%. This compound also registered an Inhibitory rate in data set [1] (dose 10 mg/kg orally) of 96.6%.
